Here are results for 7 molecules from publication PMC10920384 (Heliyon, 2024).

Test [1] has as its target dipeptidyl peptidase-IV (DPP-IV) from porcine kidney (Sus scrofa, UniProt P22411). Nature of the test: Dipeptidyl peptidase-IV. Type of test: biochemical. Particulars: for inhibition at 50 µg/mL: read-out: % Inhibition at 50 μg/mL (DPP-IV).
In test [2] the test system is α-glucosidase from Saccharomyces cerevisiae. Description: α-Glucosidase inhibitory assay. The test is classed as biochemical. To be noted: mean ± SD, N = 3.

Where two headings read alike, the source gives them in different places. Marks after values point to notes of the source that are not given here. A value given as a limit tells only on which side of the number the result lay.

Chain of dipeptidyl peptidase-IV (DPP-IV) from porcine kidney (P22411 whole entry): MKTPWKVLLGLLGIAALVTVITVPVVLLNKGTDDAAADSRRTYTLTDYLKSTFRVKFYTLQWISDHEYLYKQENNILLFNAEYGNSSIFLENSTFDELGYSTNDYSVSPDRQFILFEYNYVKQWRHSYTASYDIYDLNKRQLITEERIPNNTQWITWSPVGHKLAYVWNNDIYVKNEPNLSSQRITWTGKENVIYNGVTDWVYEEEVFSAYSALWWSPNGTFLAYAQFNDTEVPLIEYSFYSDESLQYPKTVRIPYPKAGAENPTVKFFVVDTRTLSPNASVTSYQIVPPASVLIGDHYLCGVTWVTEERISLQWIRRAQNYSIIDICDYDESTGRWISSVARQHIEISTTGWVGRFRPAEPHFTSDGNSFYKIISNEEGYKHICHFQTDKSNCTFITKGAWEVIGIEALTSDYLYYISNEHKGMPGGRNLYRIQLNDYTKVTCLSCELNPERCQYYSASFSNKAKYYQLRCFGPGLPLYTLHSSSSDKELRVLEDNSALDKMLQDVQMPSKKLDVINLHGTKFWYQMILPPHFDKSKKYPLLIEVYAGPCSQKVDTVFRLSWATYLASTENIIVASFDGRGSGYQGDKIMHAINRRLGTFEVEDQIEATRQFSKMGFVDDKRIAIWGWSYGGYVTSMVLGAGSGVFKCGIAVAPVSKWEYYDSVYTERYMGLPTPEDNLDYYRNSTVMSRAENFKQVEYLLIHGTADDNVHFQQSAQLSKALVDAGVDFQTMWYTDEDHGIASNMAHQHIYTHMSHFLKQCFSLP

The term % Inhibition denotes the drop in the measured response relative to a control, in per cent. What is called IC50 is the concentration that gives 50% inhibition. With `COc1cc(OC)c(C(=O)/C=C/c2ccccc2)c(O)c1O` [Compound 4, 2′,3′-dihydroxy-4′,6′-dimethoxychalcone], the “% Inhibition at 50 μg/mL (DPP-IV)” value in test [1] (mean ± SD, N = 3) was 97.37 ± 1.01 ^a %. In addition, in test [1] (read-out: IC50 (DPP-IV inhibition), mean ± SD, N = 3), the concentration for half-maximal inhibition (IC50) was 28.7 µM. In test [2], the “% Inhibition at 10 μg/mL (α-glucosidase)” value was 38.04 ± 1.10% and the “IC50 (α-glucosidase inhibition)” value is above 10 µg/mL.

Regarding `O=c1cc(-c2ccccc2)oc2cc(O)cc(O)c12` [Compound 5, chrysin], in test [1], the IC50 was above 197 µM and the inhibition at 50 µg/mL is 41.2 ± 1.03%. In test [2], the “% Inhibition at 10 μg/mL (α-glucosidase)” value worked out at 27.31 ± 1.04% and the “IC50 (α-glucosidase inhibition)” value was above 10 µg/mL.

Regarding `COc1cc(OC)c2c(c1O)OC(c1ccccc1)CC2=O` (stereo not shown) [Compound 7, 8-hydroxy-5,7-dimethoxyflavanone], in test [1], the IC50 was above 166 µM and the inhibition at 50 µg/mL was 27.8 ± 2.96%. In test [2], the “% Inhibition at 10 μg/mL (α-glucosidase)” value is recorded as 34.57 ± 1.43% and the “IC50 (α-glucosidase inhibition)” value is above 10 µg/mL.

Turning to `O=C1C[C@@H](c2ccccc2)Oc2cc(O)cc(O)c21` [Compound 8, pinocembrin], in test [1], the IC50 was above 195 µM and the inhibition at 50 µg/mL is 30.4 ± 1.9%. Also, in test [2], the “% Inhibition at 10 μg/mL (α-glucosidase)” value was 37.30 ± 1.03% and the “IC50 (α-glucosidase inhibition)” value was above 10 µg/mL.

As for `CC(C)=CCCC(C)=CCCC(C)=CCc1c[nH]c2ccccc12` [Compound 9, 3-Farnesyl indole], in test [1], the half-inhibitory concentration (IC50) was above 156 µM and the inhibition at 50 µg/mL worked out at 27.1 ± 0.73%. Further, in test [2], the “% Inhibition at 10 μg/mL (α-glucosidase)” value worked out at 18.40 ± 1.39% and the “IC50 (α-glucosidase inhibition)” value was above 10 µg/mL.

`COc1cc2c(c(O)c1OC)C(=O)C[C@@H](c1ccccc1)O2` [Compound 10, onysilin]: in test [1] (mean ± SD, N = 3), the “% Inhibition at 50 μg/mL (DPP-IV)” value is listed as 24.54 ± 2.38% and the “IC50 (DPP-IV inhibition)” value is above 50 µg/mL. Besides, in test [2], the “% Inhibition at 10 μg/mL (α-glucosidase)” value is 28.13 ± 1.46% and the “IC50 (α-glucosidase inhibition)” value was above 10 µg/mL.

Turning to `CC[C@H](C)[C@H](N)C(=O)N1CCC[C@H]1C(=O)N[C@H](C(=O)O)[C@@H](C)CC` [Diprotin A, diprotin A, reference compound], in test [1], the inhibition at 50 µg/mL worked out at 77.6 ± 1.18%.
